Assay: Plasma Stability Assay (Example A3), human plasma
Type: in vitro ADME
Conditions: prodrug remaining, 10 μM, 37° C.
From the text: The data is represented in the table below.

Structure (SMILES): COc1ccc([C@@]23CCC(OP4(=O)OCC(C)(C)CO4)=C[C@@H]2N(C)CC3)cc1OC [Compound 323, 2-[[(3aS,7aS)-3a-(3,4-dimethoxyphenyl)-1-methyl-3,4,5,7a-tetrahydro-2H-indol-6-yl]oxy]-5,5-dimethyl-1,3,2λ^5-dioxaphosphinane 2-oxide]
- Human Plasma Prodrug (%) (0 min): 100.00%
- Human Plasma Prodrug (%) (10 min): 86.9%
- Human Plasma Prodrug (%) (30 min): 70.8%
- Human Plasma Prodrug (%) (60 min): 52.7%
- Human Plasma Prodrug (%) (120 min): 27.0%
- Human Plasma Prodrug (%) (240 min): 9.3%

Source: patent US20240408119A1, “DELIVERY OF THERAPEUTIC ALKALOID COMPOUNDS” (priority 2022, published 2024)
